Results reported in ChEMBL document CHEMBL4480359, “Phosphotyrosine prodrugs: design, synthesis and anti-STAT3 activity of ISS-610 aryloxy triester phosphoramidate prodrugs” (Medchemcomm, 2019).
Activity calls are given as the source filed them. The rule behind the calls is not given here.

Legend:
[1] = biological target: Signal transducer and activator of transcription 3 (Homo sapiens) (UniProt P40763); experiment: Inhibition of STAT3 dimerization in human MDA-MB-231 cells assessed as down-regulation of survivin protein expression at 0.1 to 100 uM after 24 hrs by Western blot analysis; assay type: cell-based
[2] = biological target: Signal transducer and activator of transcription 3 (Homo sapiens) (UniProt P40763); experiment: Inhibition of STAT3 dimerization in human MDA-MB-231 cells assessed as down-regulation of Bcl-xl protein expression at 0.1 to 100 uM after 24 hrs by Western blot analysis; assay type: cell-based
[3] = Stability in human serum incubated for 12 hrs by mass spectrometric analysis; assay type: ADME, cell-free
[4] = biological target: Signal transducer and activator of transcription 3 (Homo sapiens) (UniProt P40763); experiment: Inhibition of STAT3 dimerization in human MDA-MB-231 cells assessed as down-regulation of survivin protein expression at 30 uM after 24 hrs by Western blot analysis; assay type: cell-based
[5] = Stability in human serum assessed as phosphorus peak formation measured over 12 hrs by [31P]-NMR analysis; assay type: ADME, cell-free

Sequence of Signal transducer and activator of transcription 3 (Homo sapiens) (P40763 whole entry): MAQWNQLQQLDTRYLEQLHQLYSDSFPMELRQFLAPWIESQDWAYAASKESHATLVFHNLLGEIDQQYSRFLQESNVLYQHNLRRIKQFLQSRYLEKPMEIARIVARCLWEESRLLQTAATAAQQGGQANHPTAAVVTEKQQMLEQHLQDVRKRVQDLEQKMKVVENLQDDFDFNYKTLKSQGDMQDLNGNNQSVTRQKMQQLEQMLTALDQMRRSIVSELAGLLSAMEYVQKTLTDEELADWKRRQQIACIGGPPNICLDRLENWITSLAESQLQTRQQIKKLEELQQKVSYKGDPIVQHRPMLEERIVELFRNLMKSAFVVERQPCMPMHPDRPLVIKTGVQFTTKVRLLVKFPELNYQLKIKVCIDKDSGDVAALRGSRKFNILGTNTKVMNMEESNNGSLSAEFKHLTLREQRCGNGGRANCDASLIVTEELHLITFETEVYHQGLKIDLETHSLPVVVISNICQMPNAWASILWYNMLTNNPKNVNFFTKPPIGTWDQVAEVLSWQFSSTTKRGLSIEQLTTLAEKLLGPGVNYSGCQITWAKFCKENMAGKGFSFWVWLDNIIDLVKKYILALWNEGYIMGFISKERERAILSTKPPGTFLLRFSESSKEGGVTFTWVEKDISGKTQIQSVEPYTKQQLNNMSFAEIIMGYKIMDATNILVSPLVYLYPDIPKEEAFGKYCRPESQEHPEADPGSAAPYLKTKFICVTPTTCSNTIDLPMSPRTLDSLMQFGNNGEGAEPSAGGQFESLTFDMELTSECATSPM

For `CC(C)C[C@H](NC(=O)[C@H](Cc1ccc(OP(=O)(O)O)cc1)NC(=O)c1ccc(C#N)cc1)C(=O)O`, the inhibition [1] was “inactive” and the inhibition [2] was “inactive”.

With `COC(=O)[C@H](CC(C)C)NC(=O)[C@H](Cc1ccc(OP(=O)(N[C@@H](C)C(=O)OCc2ccccc2)Oc2cccc3ccccc23)cc1)NC(=O)c1ccc(C#N)cc1` (some centres undefined) the inhibition [1] was “Active” and the inhibition [2] was “Active”.

With `COC(=O)[C@H](CC(C)C)NC(=O)[C@H](Cc1ccc(OP(=O)(N[C@@H](C)C(=O)OC(C)C)Oc2cccc3ccccc23)cc1)NC(=O)c1ccc(C#N)cc1` (some centres undefined) the inhibition [1] was “Active”, the inhibition [2] was “Active” and the Stability [3] was “Stable”. The inhibition [4] was “Active” and the Stability [5] was “Stable”.

In the case of `COC(=O)[C@H](CC(C)C)NC(=O)[C@H](Cc1ccc(OP(=O)(O)O)cc1)NC(=O)c1ccc(C#N)cc1`, the inhibition [1] was “inactive” and the inhibition [2] was “inactive”.

In the case of `COC(=O)[C@H](C)NP(=O)(Oc1ccc(C[C@H](NC(=O)c2ccc(C#N)cc2)C(=O)N[C@@H](CC(C)C)C(=O)OC)cc1)Oc1cccc2ccccc12` (some centres undefined), the inhibition [1] was “Active”, the inhibition [2] was “Active” and the inhibition [4] was “Active”.
